Legend:
[1] = target: HIV-1 PR (Human immunodeficiency virus type 1 group M subtype B, UniProt P04585); experiment: HIV-protease inhibitory activity assay (FRET peptide substrate); assay type: biochemical; conditions: Test Example 1
Procedure, shortened: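 HIV-1 PR (0.83 ng) preincubated with compounds 20 min at room temperature in 0.1 mol/L NaAc, 0.5 mol/L NaCl, 1 mmol/L EDTA, 1 mmol/L DTT, 0.05% Tween 20, pH 4.8. Cleavage of HiLyte Fluor 488/QXL 520 FRET peptide (2 μmol/L) read after 60 minutes at 485/535 nm; IC50 from four-parameter logistic fit.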

[2] = Protein binding test (equilibrium dialysis, unbound ratio fu in serum); assay type: in vitro ADME; conditions: rat serum, equilibrium dialysis 24 hours, 37° C., 2 μg/mL
Method: Assay condition: Evaluation method; Equilibrium dialysis method, Reaction time; 24 hours, Reaction temperature; 37° C., Assay concentration; 2 μg/mL A solution of the compound was added to each serum and mixed to prepare the serum samples with above concentration. The serum sample was put into one side of an equilibrium dialysis apparatus with dialysis membrane and phosphate buffered saline (PBS) was also put to another side of the apparatus. The apparatus was incubated at 37° C. for 24 hours. After incubation, the serum and PBS samples were collected and the compound concentrations in both samples were measured by LC/MS/MS. Fu was calculated by dividing the concentration in PBS by the concentration in the serum.

[3] = Evaluation of total body clearance (CLtot), intravenous administration; assay type: in vivo, Sprague-Dawley (SD); conditions: rat (SD), intravenous administration 0.5-10 mg/kg; CLtot = dose/AUC
Procedure, shortened: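 Plasma levels quantified by LC/MS/MS after intravenous tail-vein dosing (0.5-10 mg/kg, compound-dependent; n=2-3). AUC from pharmacokinetic analysis; total clearance calculated as dose/AUC.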

SMILES	IC50 [1]	rat_fu [2]	rat_CLt [3]
COc1ccc(S(=O)(=O)N(CC(C)C)CC(O)C(Cc2ccc(CN(C)c3ccc(-c4sc5c(c4C(=O)O)CC(C)(C)CC5)cc3)cc2)NC(=O)OC2COC3(C)OCCC23)cc1 (stereo not drawn) [Compound I-265]	5.07 nM	<0.1%	4.01 mL/min/kg
COc1ccc(S(=O)(=O)N(CC(C)C)CC(O)C(Cc2ccc(CN(C)Cc3ccc(-c4sc5c(c4C(=O)O)CC(C)(C)CC5)cc3)cc2)NC(=O)OC2COC3(C)OCCC23)cc1 (stereo not drawn) [Compound I-267]	2.4 nM	<0.1%	5.01 mL/min/kg
COc1ccc(S(=O)(=O)N(CC(C)C)C[C@@H](O)[C@H](Cc2ccc(OCc3ccccc3C(=O)Nc3sc4c(c3C(=O)O)CC(C)(C)CC4)cc2)NC(=O)O[C@H]2CO[C@@]3(C)OCC[C@@H]23)cc1 [Compound I-268]	4.46 nM	<0.1%	0.0553 mL/min/kg
COc1ccc(S(=O)(=O)N(CC(C)C)CC(O)C(Cc2ccc(NCc3cc(F)ccc3-c3sc4c(c3C(=O)O)CC(C)(C)CC4)cc2)NC(=O)OC2COC3(C)OCCC23)cc1 (stereo not drawn) [Compound I-271]	2.23 nM	<0.1%	2.42 mL/min/kg
COc1ccc(S(=O)(=O)N(CC(C)C)CC(O)C(Cc2ccc(NCc3ccc(C)cc3-c3sc4c(c3C(=O)O)CC(C)(C)CC4)cc2)NC(=O)OC2COC3(C)OCCC23)cc1 (stereo not drawn) [Compound I-272]	2.11 nM	<0.1%	0.715 mL/min/kg
COc1ccc(S(=O)(=O)N(CC(C)C)CC(O)C(Cc2ccc(NCc3ccc(OC)cc3-c3sc4c(c3C(=O)O)CC(C)(C)CC4)cc2)NC(=O)OC2COC3(C)OCCC23)cc1 (stereo not drawn) [Compound I-274]	2.11 nM	<0.1%	0.659 mL/min/kg
COc1ccc(S(=O)(=O)N(CC(C)C)CC(O)C(Cc2ccc(NCc3ccc(F)cc3-c3sc4c(c3C(=O)O)CC(C)(C)CC4)cc2)NC(=O)OC2COC3(C)OCCC23)cc1 (stereo not drawn) [Compound I-275]	2.11 nM	<0.1%	2.12 mL/min/kg
COc1ccc(S(=O)(=O)N(CC(C)C)CC(O)C(Cc2ccc(NCc3cccc(F)c3-c3sc4c(c3C(=O)O)CC(C)(C)CC4)cc2)NC(=O)OC2COC3(C)OCCC23)cc1 (stereo not drawn) [Compound I-277]	1.94 nM	<0.1%	0.512 mL/min/kg
COc1ccc(S(=O)(=O)N(CC(C)C)CC(O)C(Cc2ccc(NCc3cccc(-c4sc5c(c4C(=O)O)CC(C)(C)CC5)c3C)cc2)NC(=O)OC2COC3(C)OCCC23)cc1 (stereo not drawn) [Compound I-292]	2.68 nM	<0.1%	0.166 mL/min/kg
COc1ccc(S(=O)(=O)N(CC(C)C)CC(O)C(Cc2ccc(NCc3ncc(-c4sc5c(c4C(=O)O)CC(C)(C)CC5)s3)cc2)NC(=O)OC2COC3(C)OCCC23)cc1 (stereo not drawn) [Compound I-297]	1.82 nM	<0.1%	3.54 mL/min/kg
COc1ccc(S(=O)(=O)N(CC(C)C)CC(O)C(Cc2ccc(NCC3(O)CCCC3c3sc4c(c3C(=O)O)CC(C)(C)CC4)cc2)NC(=O)OC2COC3(C)OCCC23)cc1 (stereo not drawn) [Compound I-334]	1.91 nM	<0.1%	3.87 mL/min/kg
CCCCCN(Cc1ccccc1-c1sc2c(c1C(=O)O)CC(C)(C)CC2)c1ccc(CC(NC(=O)OC2COC3(C)OCCC23)C(O)CN(CC(C)C)S(=O)(=O)c2ccc(OC)cc2)cc1 (stereo not drawn) [Compound I-338]	4.7 nM	<0.1%	5.7 mL/min/kg
COc1ccc(S(=O)(=O)N(CC(C)C)CC(O)C(Cc2ccc(OC3CCC(c4ccc(C(F)(F)F)cc4-c4sc5c(c4C(=O)O)CC(C)(C)CC5)C3)cc2)NC(=O)OC2COC3(C)OCCC23)cc1 (stereo not drawn) [Compound I-343]	15.9 nM	<0.1%	3.31 mL/min/kg
COc1ccc(S(=O)(=O)N(CC(C)C)CC(O)C(Cc2ccc(N(C)CC3=C(c4sc5c(c4C(=O)O)CC(C)(C)CC5)CCC3)cc2)NC(=O)OC2COC3(C)OCCC23)cc1 (stereo not drawn) [Compound I-347]	4.4 nM	<0.1%	5.18 mL/min/kg
COc1ccc(S(=O)(=O)N(CC(C)C)CC(O)C(Cc2ccc(N(C)Cc3ccccc3-n3nc4c(c3C(=O)O)CC(C)(C)CC4)cc2)NC(=O)OC2COC3(C)OCCC23)cc1 (stereo not drawn) [Compound I-349]	2.33 nM	<0.1%	0.71 mL/min/kg
COc1ccc(S(=O)(=O)N(CC(C)C)CC(O)C(Cc2ccc(N3CCC(Oc4ccc(-c5sc6c(c5C(=O)O)CC(C)(C)CC6)cc4)C3)cc2)NC(=O)OC2COC3(C)OCCC23)cc1 (stereo not drawn) [Compound I-351]	5.09 nM	<0.1%	3.08 mL/min/kg
CCN(Cc1ccccc1-c1sc2c(c1C(=O)O)CC(C)(C)CC2)c1ccc(CC(NC(=O)OC2COC3(C)OCCC23)C(O)CN(CC(C)C)S(=O)(=O)c2ccc(OC)cc2)cc1 (stereo not drawn) [Compound I-352]	4.22 nM	<0.1%	3.26 mL/min/kg
COc1ccc(S(=O)(=O)N(CC(C)C)CC(O)C(Cc2ccc(OC3CN(c4cc(C(F)(F)F)ccc4-c4sc5c(c4C(=O)O)CC(C)(C)CC5)C3)cc2)NC(=O)OC2COC3(C)OCCC23)cc1 (stereo not drawn) [Compound I-354]	44.2 nM	<0.1%	0.0682 mL/min/kg
COc1ccc(S(=O)(=O)N(CC(C)C)CC(O)C(Cc2ccc(N3CC(Oc4ccccc4-c4sc5c(c4C(=O)O)CC(C)(C)CC5)C3)cc2)NC(=O)OC2COC3(C)OCCC23)cc1 (stereo not drawn) [Compound I-357]	4.41 nM	<0.1%	1.55 mL/min/kg
COc1ccc(S(=O)(=O)N(CC(C)C)CC(O)C(Cc2ccc(NCC3=C(c4sc5c(c4C(=O)O)CC(C)(C)CC5)CCOC3)cc2)NC(=O)OC2COC3(C)OCCC23)cc1 (stereo not drawn) [Compound I-362]	3.07 nM	<0.1%	4.62 mL/min/kg
COc1ccc(S(=O)(=O)N(CC(C)C)CC(O)C(Cc2ccc(N(C)CC3=C(c4sc5c(c4C(=O)O)CC(C)(C)CC5)CCOC3)cc2)NC(=O)OC2COC3(C)OCCC23)cc1 (stereo not drawn) [Compound I-363]	3.36 nM	<0.1%	3.39 mL/min/kg
COc1ccc(S(=O)(=O)N(CC2CCCC2)CC(O)C(Cc2ccc(OCc3cc(C(F)(F)F)ccc3-n3nc4c(c3C(=O)O)CC(C)(C)CC4)cc2)NC(=O)OC2COC3(C)OCCC23)cc1 (stereo not drawn) [Compound I-365]	3.2 nM	<0.1%	0.119 mL/min/kg
COc1ccc(S(=O)(=O)N(CC(C)C)CC(O)C(Cc2ccc(N(C)CC3CCCCC3c3sc4c(c3C(=O)O)CC(C)(C)CC4)cc2)NC(=O)OC2COC3(C)OCCC23)cc1 (stereo not drawn) [Compound I-374]	4.35 nM	<0.1%	3.94 mL/min/kg
COc1ccc(S(=O)(=O)N(CC(C)C)CC(O)C(Cc2ccc(CN(C)c3ccc(-c4sc5c(c4C(=O)O)CC(C)(C)CC5)c(C)c3)cc2)NC(=O)OC2COC3(C)OCCC23)cc1 (stereo not drawn) [Compound I-376]	9.86 nM	<0.1%	0.485 mL/min/kg
COc1ccc(S(=O)(=O)N(CC(C)C)CC(O)C(Cc2ccc(NCc3cc(C(F)(F)F)ccc3-n3nc4c(c3C(=O)O)CC(C)(C)CC4)cc2)NC(=O)OC2COC3(C)OCCC23)cc1 (stereo not drawn) [Compound I-378]	4.1 nM	<0.1%	0.173 mL/min/kg
